Reference: patent US10626109B2, “N-hetaryl(thio)carbonyl-2-(benzocycloalken-1-yl)cyclamines and their use as fungicides” (BAYER CROPSCIENCE AKTIENGESELLSCHAFT, priority 2013, dated 2020)
Like-named read-outs stand apart in the source and are kept apart here. Marks after values point to notes of the source that are not given here.

Tests used:
[1] = log P by HPLC on reversed-phase column (C 18), EEC Directive 79/831 Annex V.A8; assay type: physicochemical
Procedure: In table 1, the log P values were determined in accordance with EEC Directive 79/831 Annex V.A8 by HPLC (High Performance Liquid Chromatography) on a reversed-phase column (C 18), using the method described below: Temperature: 40° C.; Mobile phases: 0.1% aqueous formic acid and acetonitrile; linear gradient from 10% acetonitrile to 90% acetonitrile. Calibration was carried out using unbranched alkan-2-ones (comprising 3 to 16 carbon atoms) with known log P values (determination of the log P values by the retention times using linear interpolation between two successive alkanones). lambda-max-values were determined using UV-spectra from 200 nm to 400 nm and the peak values of the chromatographic signals. In table 2, M+H (Apcl+) and log P are defined as for table 1.

[2] = system: Puccinia recondita; assay: In vivo preventive test on Puccinia recondita (brown rust on wheat); details: for protection: in words, at a dose of 500 and 100 ppm of active ingredient, analogues 11 and 13 in very similar conditions
Procedure: [table] […] The young plants of wheat are treated by spraying the active ingredient prepared as described above. […] After 24 hours, the plants are contaminated by spraying the leaves with an aqueous suspension of Puccinia recondita spores. The contaminated wheat plants are incubated for 24 hours at 20° C. and at 100% relative humidity and then for 10 days at 20° C. and at 70-80% relative humidity. The test is evaluated 11 days after the inoculation. 0% means an efficacy which corresponds to that of the control plants while an efficacy of 100% means that no disease is observed.

[3] = system: Uromyces appendiculatus; assay: In vivo preventive test on Uromyces appendiculatus (bean rust)
Procedure: [table] The active ingredients are made soluble and homogenized in a mixture of Dimethyl sulfoxide/Acetone//Tween® 80 and then diluted in water to the desired concentration. The young plants of bean are treated by spraying the active ingredient prepared as described above. Control plants are treated only with an aqueous solution of Acetone/Dimethyl sulfoxide/Tween® 80. After 24 hours, the plants are contaminated by spraying the leaves with an aqueous suspension of Uromyces appendiculatus spores. The contaminated bean plants are incubated for 24 hours at 20° C. and at 100% relative humidity and then for 10 days at 20° C. and at 70-80% relative humidity. The test is evaluated 11 days after the inoculation. 0% means an efficacy which corresponds to that of the control plants while an efficacy of 100% means that no disease is observed.

[4] = Table 1, HPLC, 0.1% aqueous formic acid and acetonitrile, 40° C., second value of a mixture of two diastereoisomers
[5] = Table 1, HPLC, 0.1% aqueous formic acid and acetonitrile, 40° C., single value, or first value of a mixture of two diastereoisomers

SMILES	logP [1, 4]	logP [1, 5]	other results
c1ccc2c(c1)CCCCC2C1CCCCN1 (stereo not drawn) [IIa.03, 2-(6,7,8,9-tetrahydro-5H-benzo[7]annulen-5-yl)piperidine]			chromatographic logP ([1]; logP): 1.31
Cn1nc(C(F)F)c(C(=O)N2CCCC2C2CCc3cc(F)ccc32)c1F (mixture of isomers) [I.18]	3.37	3.29	
Cn1cc(C(=O)N2CCCC2C2CCc3c(F)cccc32)c(C(F)F)n1 (mixture of isomers) [I.01]	2.98	2.88	
O=C(c1ccsc1Br)N1CCCC1C1CCc2c(F)cccc21 (single isomer, unassigned) [I.04]		3.87	
Cn1cc(C(=O)N2CCCC2C2CCc3cc(F)cc(F)c32)c(C(F)F)n1 (stereo not drawn) [I.11]		2.96	
Cn1nc(C(F)F)c(C(=O)N2CCCC2C2CCc3c(F)cccc32)c1Cl (stereo not drawn) [I.02]		3.48	
c1ccc2c(c1)OCCC2C1CCCCN1 (stereo not drawn) [IIa.04, 2-(3,4-dihydro-2H-chromen-4-yl)piperidine]			chromatographic logP ([1]; reversed-phase HPLC column (C 18), Table 2, compounds of formula (IIa), HPLC as for table 1, read-out: logP): 0.82
Cn1cc(C(=O)N2CCCC2C2CCc3ccc(Cl)cc32)c(C(F)F)n1 (mixture of isomers) [I.19]	3.27	3.19	
Cn1nc(C(F)F)c(C(=O)N2CCCC2C2CCc3cc(Cl)cc(Cl)c32)c1Cl (mixture of isomers) [I.09]	4.41	4.34	
Cn1nc(C(F)F)c(C(=O)N2CCCC2C2CCc3cc(F)cc(F)c32)c1F (mixture of isomers) [I.13]	3.41	3.35	
Cn1nc(C(F)F)c(C(=O)N2CCCC2C2CCc3cc(Cl)cc(Cl)c32)c1F (stereo not drawn) [I.10]		4.14	
Cn1cc(C(=O)N2CCCC2C2CCc3cc(F)ccc32)c(C(F)F)n1 (mixture of isomers) [I.17]	3.00	2.84	
Cn1nc(C(=O)N2CCCC2C2CCc3cc(F)cc(F)c32)c(C(F)F)n1 (single isomer, unassigned) [I.15, [2-(5,7-difluoro-2,3-dihydro-1H-inden-1-yl)pyrrolidin-1-yl][5-(difluoromethyl)-2-methyl-2H-1,2,3-triazol-4-yl]methanone]			chromatographic logP ([1]; reversed-phase HPLC column (C 18), separated diastereoisomers, preparation Example 1, read-out: log P): 3.63
Cn1nc(C(=O)N2CCCC2C2CCc3cc(F)cc(F)c32)c(C(F)F)n1 (single isomer, unassigned) [I.14, [2-(5,7-difluoro-2,3-dihydro-1H-inden-1-yl)pyrrolidin-1-yl][5-(difluoromethyl)-2-methyl-2H-1,2,3-triazol-4-yl]methanone]			chromatographic logP ([1]; reversed-phase HPLC column (C 18), Table 1, HPLC, 0.1% aqueous formic acid and acetonitrile, 40° C., single value, or first value of a mixture of two diastereoisomers, read-out: logP): 3.41
CCC(c1ccccc1)C1CCCCN1C(=O)c1c(C(F)F)nn(C)c1F (stereo not drawn) [136 from WO-2012/052489, [3-(difluoromethyl)-5-fluoro-1-methyl-1H-pyrazol-4-yl][2-(1-phenylpropyl)piperidin-1-yl]methanone]			Efficacy ([2]; Table C1, dose 100 ppm, wheat): 50%; Efficacy ([2]; Table C1, dose 500 ppm, wheat): 65%; protection ([2]; wheat): average protection
c1ccc2c(c1)CCC2C1CCCCN1 (stereo not drawn) [IIa.01, 2-(2,3-dihydro-1H-inden-1-yl)piperidine]			chromatographic logP ([1]; logP): 0.52
Cn1nc(C(F)F)c(C(=O)N2CCCC2C2CCc3ccc(Cl)cc32)c1Cl (mixture of isomers) [I.20]	3.92	3.87	
O=C(c1ccsc1Br)N1CCCC1C1CCc2c(F)cccc21 (single isomer, unassigned) [I.05]		3.96	
Cn1cc(C(=O)N2CCCC2C2CCc3cc(Cl)cc(Cl)c32)c(C(F)F)n1 (stereo not drawn) [I.08]		3.61	
Cn1nc(C(F)F)c(C(=O)N(CCc2ccccc2)C2CC2)c1F [11 from WO-2011/151369, N-cyclopropyl-3-(difluoromethyl)-5-fluoro-1-methyl-N-(2-phenylethyl)-1H-pyrazole-4-carboxamide]			Efficacy ([2]; Table C2, dose 100 ppm, formulated in DMF with 2% of alkylarylpolyglycolether): 0 ^(a) %; Efficacy ([2]; Table C2, dose 500 ppm, formulated in DMF with 2% of alkylarylpolyglycolether): 10 ^(a) %; protection ([2]; wheat): poor (less than 40%) to no protection
Cn1nc(C(F)F)c(C(=O)N2CCCC2C2CCc3c(F)cccc32)c1F (mixture of isomers) [I.03]	3.35	3.31	
Cn1nc(C(F)F)c(C(=O)N2CCCC2C2CCc3cc(F)ccc32)c1Cl (stereo not drawn) [I.16]		3.50	
Cn1cc(C(=O)N2CCCC2C2CCc3ccc(C(C)(C)C)cc32)c(C(F)F)n1 (stereo not drawn) [I.22]		4.16	
c1ccc2c(c1)CCCC2C1CCCCN1 (stereo not drawn) [IIa.02, 2-(1,2,3,4-tetrahydronaphthalen-1-yl)piperidine]			chromatographic logP ([1]; logP): 1.21
Cc1cc(C(=O)N2CCCC2C2CCc3c(F)cccc32)c(C)o1 (single isomer, unassigned) [I.07]		3.90	
Cn1nc(C(F)F)c(C(=O)N2CCCC2C2CCc3cc(F)cc(F)c32)c1Cl (mixture of isomers) [I.12]	3.59	3.55	
CCC(c1ccccc1)C1CCCN1C(=O)c1c(C(F)F)nn(C)c1F (stereo not drawn) [53 from WO2012/052491, [3-(difluoromethyl)-5-fluoro-1-methyl-1H-pyrazol-4-yl][2-(1-phenylpropyl)pyrrolidin-1-yl]methanone, reference compound]			Efficacy ([3]; Table G1, dose 100 ppm): 0%; Efficacy ([3]; Table G1, dose 500 ppm): 77%; protection ([3]; in words, at a dose of 500 and 100 ppm of active ingredient): good (at least 70%) to no protection
Cn1nc(C(F)F)c(C(=O)N2CCCC2C2CCc3ccc(Cl)cc32)c1F (mixture of isomers) [I.21]	3.70	3.68	
Cc1cc(C(=O)N2CCCC2C2CCc3c(F)cccc32)c(C)o1 (single isomer, unassigned) [I.06]		3.74	

The next lines start with results.

logP [1, 4]	logP [1, 5]	SMILES	other results
	4.82	Cn1nc(C(F)F)c(C(=O)N2CCCC2C2CCc3ccc(C(C)(C)C)cc32)c1Cl (stereo not drawn) [I.23]	
3.79	3.68	Cn1nc(C(F)F)c(C(=O)N2CCCC2C2CCCc3ccccc32)c1Cl (mixture of isomers) [I.25]	
3.13	2.96	Cn1cc(C(=O)N2CCCCC2C2CCc3ccccc32)c(C(F)F)n1 (mixture of isomers) [I.29]	
3.27	2.86	Cn1nc(C(F)F)c(C(=O)N2CCCCC2C2CCOc3ccccc32)c1F (mixture of isomers) [I.36]	
	3.68	Cn1cc(C(=O)N2CCCC2C2CCc3cc(F)cc(F)c32)c(C(F)(F)F)c1 (single isomer, unassigned) [I.39]	
	4.01	Cn1nc(C(F)F)c(C(=S)N2CCCC2C2CCc3c(F)cccc32)c1F (stereo not drawn) [I.41]	
3.68	3.50	Cn1cc(C(=O)N2CCCCC2C2CCCCc3ccccc32)c(C(F)F)n1 (mixture of isomers) [I.33]	
2.90	2.46	Cn1cc(C(=O)N2CCCCC2C2CCOc3ccccc32)c(C(F)F)n1 (mixture of isomers) [I.35]	
	3.55	Cc1nc(C(F)F)c(C(=O)N2CCCC2C2CCc3cc(F)cc(F)c32)s1 (single isomer, unassigned) [I.38]	
	3.17	Cn1cc(C(=O)N2CCCCC2C2CCCc3ccccc32)c(C(F)F)n1 (stereo not drawn) [I.32]	
3.55	3.44	Cn1nc(C(F)F)c(C(=O)N2CCCCC2C2CCc3ccccc32)c1F (mixture of isomers) [I.30]	
	3.52	Cc1nc(C(F)F)c(C(=O)N2CCCC2C2CCc3cc(F)cc(F)c32)s1 (single isomer, unassigned) [I.37]	
4.77	4.56	Cn1nc(C(F)F)c(C(=S)N2CCCC2C2CCCc3ccccc32)c1Cl (mixture of isomers) [I.28]	
4.15	3.96	Cn1nc(C(F)F)c(C(=O)N2CCCCC2C2CCCCc3ccccc32)c1F (mixture of isomers) [I.34]	
	3.67	Cn1nc(C(F)F)c(C(=O)N2CCCCC2C2CCCc3ccccc32)c1F (stereo not drawn) [I.31]	Efficacy ([2]; Table C1, dose 100 ppm, wheat): 64%; Efficacy ([2]; Table C1, dose 500 ppm, wheat): 93%; protection ([2]; wheat): excellent (at least 90%) to average (at least 60%) protection
	3.70	Cn1cc(C(=O)N2CCCC2C2CCc3cc(F)cc(F)c32)c(C(F)(F)F)c1 (single isomer, unassigned) [I.40]	
